Laboratory results as given in ChEMBL document CHEMBL1201862, “PubChem BioAssay data set” (2004).
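In this assay, cells in 96-well plates receive the compound at five concentrations for 48 hours. Endpoints are linearly interpolated between the surrounding concentrations. GI50: concentration for 50% inhibition of growth.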 The source made the active and inactive calls. Cut-off read from the data, not from the text of the source: active = GI50 up to about 1.1 µM and inactive = higher.

Assays:
Assay in all cases: DTP human tumour cell line panel, 48 h
[1] = system: NCI-H23
[2] = system: SN12C
[3] = system: OVCAR-4
[4] = system: M14
[5] = system: SW-620
[6] = system: SK-MEL-2
[7] = system: HL-60
[8] = system: OVCAR-3
[9] = system: KM12
[10] = system: RXF 393
[11] = system: OVCAR-5
[12] = system: TK-10
[13] = system: COLO 205
[14] = system: K562
[15] = system: HOP-62
[16] = system: RPMI-8226
[17] = system: HCC 2998
[18] = system: HCT-116

SMILES | GI50 [1] | GI50 [2] | GI50 [3] | GI50 [4] | GI50 [5] | GI50 [6] | GI50 [7] | GI50 [8] | GI50 [9] | GI50 [10] | GI50 [11] | GI50 [12] | GI50 [13] | GI50 [14] | GI50 [15] | GI50 [16] | GI50 [17] | GI50 [18]
C=CCNC(=O)NCCCC(NC(C)=O)C(=O)NCc1ccccc1 (stereo unspecified) | > 100 µM (inactive) | > 100 µM (inactive) | > 100 µM (inactive) | > 100 µM (inactive) | > 100 µM (inactive) | > 100 µM (inactive) | > 100 µM (inactive) | > 100 µM (inactive) | > 100 µM (inactive) | > 100 µM (inactive) | > 100 µM (inactive) | > 100 µM (inactive) | > 100 µM (inactive) | > 100 µM (inactive) | > 100 µM (inactive) | > 100 µM (inactive) | – | –
O=C1/C(=C(\Nc2ccccc2)c2ccccc2)C=NN1c1ccccc1 | 56.8 µM (inactive) | > 100 µM (inactive) | 76.9 µM (inactive) | > 100 µM (inactive) | > 100 µM (inactive) | > 100 µM (inactive) | 17.7 µM (inactive) | – | > 100 µM (inactive) | 22.1 µM (inactive) | > 100 µM (inactive) | > 100 µM (inactive) | > 100 µM (inactive) | 72.8 µM (inactive) | – | 40.8 µM (inactive) | > 100 µM (inactive) | –
COC(=O)C(=O)C(C(=O)C=C(C)C)C(=O)C(=O)Nc1nc2ccc([N+](=O)[O-])cc2s1 (stereo unspecified) | 24.9 µM (inactive) | 37.9 µM (inactive) | 52.5 µM (inactive) | 52 µM (inactive) | > 100 µM (inactive) | 49.5 µM (inactive) | 35.4 µM (inactive) | 44.6 µM (inactive) | 98.9 µM (inactive) | 12.9 µM (inactive) | > 100 µM (inactive) | 38.5 µM (inactive) | > 100 µM (inactive) | 46.2 µM (inactive) | 38.4 µM (inactive) | 28.4 µM (inactive) | 46.6 µM (inactive) | 50 µM (inactive)
OCCCNc1ccnc2cc(Cl)ccc12 | > 100 µM (inactive) | > 100 µM (inactive) | > 100 µM (inactive) | > 100 µM (inactive) | > 100 µM (inactive) | > 100 µM (inactive) | > 100 µM (inactive) | > 100 µM (inactive) | > 100 µM (inactive) | > 100 µM (inactive) | > 100 µM (inactive) | 21 µM (inactive) | > 100 µM (inactive) | > 100 µM (inactive) | > 100 µM (inactive) | > 100 µM (inactive) | > 100 µM (inactive) | 57.9 µM (inactive)
Nc1c(-c2ccc(Cl)cc2Cl)[n+]([O-])c2ccccc2[n+]1[O-] | > 100 µM (inactive) | > 100 µM (inactive) | > 100 µM (inactive) | > 100 µM (inactive) | > 100 µM (inactive) | > 100 µM (inactive) | > 100 µM (inactive) | > 100 µM (inactive) | > 100 µM (inactive) | – | > 100 µM (inactive) | > 100 µM (inactive) | > 100 µM (inactive) | > 100 µM (inactive) | > 100 µM (inactive) | > 100 µM (inactive) | > 100 µM (inactive) | –
c1cnc2c(c1)-n1cccc1C1(CCCCC1)NN2 | – | > 100 µM (inactive) | > 100 µM (inactive) | > 100 µM (inactive) | > 100 µM (inactive) | > 100 µM (inactive) | 93.8 µM (inactive) | 86.3 µM (inactive) | 99.1 µM (inactive) | – | > 100 µM (inactive) | 75.3 µM (inactive) | > 100 µM (inactive) | 45.1 µM (inactive) | > 100 µM (inactive) | 47.9 µM (inactive) | > 100 µM (inactive) | 59.8 µM (inactive)
COc1cc2c(c(OC)c1O)-c1ccc(SC)c(=O)cc1C(NC(C)=O)CC2 (stereo unspecified) | 0.0167 µM (active) | 0.0518 µM (active) | > 40.6 µM (inactive) | 0.0249 µM (active) | < 0.01 µM (active) | < 0.01 µM (active) | < 0.01 µM (active) | < 0.01 µM (active) | < 0.01 µM (active) | 0.0171 µM (active) | 4.83 µM (inactive) | 2.29 µM (inactive) | < 0.01 µM (active) | < 0.01 µM (active) | 0.0405 µM (active) | < 0.0121 µM (active) | 0.0261 µM (active) | < 0.01 µM (active)
CC(=O)OC1(C(C)=O)CC2(c3ccccc3)OC1(c1ccccc1)c1ccccc12 (stereo unspecified) | 8.34 µM (inactive) | 35.6 µM (inactive) | – | 14.4 µM (inactive) | 16.7 µM (inactive) | 12.6 µM (inactive) | – | 11.4 µM (inactive) | 17.3 µM (inactive) | 13 µM (inactive) | > 100 µM (inactive) | 17.6 µM (inactive) | 7.67 µM (inactive) | – | 11.6 µM (inactive) | 3.18 µM (inactive) | 16.8 µM (inactive) | 7.78 µM (inactive)
NCCCOCC(=O)O | > 100 µM (inactive) | > 100 µM (inactive) | > 100 µM (inactive) | – | > 100 µM (inactive) | > 100 µM (inactive) | – | > 100 µM (inactive) | > 100 µM (inactive) | > 100 µM (inactive) | > 100 µM (inactive) | > 100 µM (inactive) | > 100 µM (inactive) | > 100 µM (inactive) | – | > 100 µM (inactive) | > 100 µM (inactive) | > 100 µM (inactive)
CC(C)(CN1CCCCC1)C(=O)CC(SCCS(=O)(=O)O)c1ccc(Br)cc1 (stereo unspecified) | 2.34 µM (inactive) | 1.34 µM (inactive) | 2.03 µM (inactive) | 1.59 µM (inactive) | – | 2.32 µM (inactive) | – | – | 2 µM (inactive) | 1.41 µM (inactive) | 2.8 µM (inactive) | 2.56 µM (inactive) | 1.45 µM (inactive) | 1.21 µM (inactive) | 6.18 µM (inactive) | 1.94 µM (inactive) | 2.7 µM (inactive) | 1.67 µM (inactive)
Cc1ccc(-c2cc(-c3ccco3)c(C#N)c(O)n2)cc1 | > 100 µM (inactive) | > 100 µM (inactive) | 45.1 µM (inactive) | > 100 µM (inactive) | > 100 µM (inactive) | – | > 100 µM (inactive) | > 100 µM (inactive) | > 100 µM (inactive) | 95.1 µM (inactive) | > 100 µM (inactive) | > 100 µM (inactive) | > 100 µM (inactive) | > 100 µM (inactive) | 50.2 µM (inactive) | > 100 µM (inactive) | > 100 µM (inactive) | > 100 µM (inactive)
OCC(O)COc1c(Cl)ccc(Cl)c1Cl (stereo unspecified) | > 100 µM (inactive) | > 100 µM (inactive) | > 100 µM (inactive) | > 100 µM (inactive) | > 100 µM (inactive) | > 100 µM (inactive) | > 100 µM (inactive) | > 100 µM (inactive) | > 100 µM (inactive) | > 100 µM (inactive) | > 100 µM (inactive) | > 100 µM (inactive) | > 100 µM (inactive) | > 100 µM (inactive) | > 100 µM (inactive) | – | > 100 µM (inactive) | > 100 µM (inactive)
CC(=O)Nc1ccc(/C=C/C(=O)c2sc(C(N)=S)nc2C)cc1 | > 100 µM (inactive) | > 100 µM (inactive) | – | – | > 100 µM (inactive) | > 100 µM (inactive) | > 100 µM (inactive) | > 100 µM (inactive) | > 100 µM (inactive) | > 100 µM (inactive) | > 100 µM (inactive) | > 100 µM (inactive) | > 100 µM (inactive) | > 100 µM (inactive) | > 100 µM (inactive) | > 100 µM (inactive) | > 100 µM (inactive) | –
CCOC(=O)c1sc2c(sc(=O)n2-c2ccccc2)c1O | 65.8 µM (inactive) | > 100 µM (inactive) | > 100 µM (inactive) | > 100 µM (inactive) | – | > 100 µM (inactive) | > 100 µM (inactive) | 88.7 µM (inactive) | > 100 µM (inactive) | > 100 µM (inactive) | > 100 µM (inactive) | > 100 µM (inactive) | 45.3 µM (inactive) | > 100 µM (inactive) | > 100 µM (inactive) | – | > 100 µM (inactive) | > 100 µM (inactive)
O=C(O)[C@@H](NS(=O)(=O)c1ccc2ccccc2c1)c1ccccc1 | > 100 µM (inactive) | > 100 µM (inactive) | > 100 µM (inactive) | > 100 µM (inactive) | – | > 100 µM (inactive) | > 100 µM (inactive) | – | – | > 100 µM (inactive) | > 100 µM (inactive) | – | > 100 µM (inactive) | > 100 µM (inactive) | – | > 100 µM (inactive) | > 100 µM (inactive) | –
CC(=O)O[C@H]1C(N(C)C(=O)c2ccccc2)CC[C@]2(C)C3CC[C@@]4(C)C(CC(O)[C@@H]4C(C)N(C)C)[C@@H]3CCC12 (stereo partly specified) | > 100 µM (inactive) | > 100 µM (inactive) | > 100 µM (inactive) | > 100 µM (inactive) | > 100 µM (inactive) | > 100 µM (inactive) | 89.5 µM (inactive) | > 100 µM (inactive) | > 100 µM (inactive) | – | > 100 µM (inactive) | > 100 µM (inactive) | > 100 µM (inactive) | > 100 µM (inactive) | > 100 µM (inactive) | > 100 µM (inactive) | > 100 µM (inactive) | > 100 µM (inactive)
Cc1ccc(S(=O)(=O)c2c(N)n(CCN(C)C)c3nc4ccccc4nc23)cc1 | > 100 µM (inactive) | > 100 µM (inactive) | > 100 µM (inactive) | > 100 µM (inactive) | – | > 100 µM (inactive) | > 100 µM (inactive) | > 100 µM (inactive) | 45.1 µM (inactive) | – | > 100 µM (inactive) | 99.8 µM (inactive) | > 100 µM (inactive) | > 100 µM (inactive) | – | > 100 µM (inactive) | > 100 µM (inactive) | > 100 µM (inactive)
